US7053175B1, “Synthetic peptides useful in biological assays for detecting infections caused by group O HIV-1 viruses” (Bio-Rad Pasteur, priority 1997, dated 2006)
No end group written: not given here.

Tested on: sera from patients infected with group O HIV-1 retroviruses
Test: Immunoenzymatic test: Test No. 1 (immunoreactivity of peptides coated on microplates)
Type: binding, human
Set-up: key to ABSORBANCE: >: signal greater than the reading capacity of the spectrophotometer
Settings: for ABSORBANCE: cyclized peptide 2 μg/ml
Procedure: The sera used ESS, DUR, VAU and HAD are sera from French patients infected with group O HIV-1 retroviruses. The other serum samples from patients infected with group O HIV-1 retroviruses were obtained by the Yaoundé Pasteur Centre in Cameroon and were serotyped group O according to the serological algorithm described in AIDS (1977), 11, pp 445-453.
The HIV-negative sera (n=48) were obtained from healthy volunteers.
The synthetic peptides used were dissolved in water at a concentration of 1 mg/ml (stock solution). For the solid phase sensitization step (coating), 110 μl of a solution at 2 μg/ml of each peptide (obtained by diluting the stock solution with 0.1 M carbonate buffer solution) were added to each well of the microtitre plates Microtiter™ (NUNC). After incubating overnight at room temperature, the microplates were first washed with a Tris-NaCl buffer solution pH 7.4 containing 0.1% of Tween® 20 and 0.001% sodium merthiolate, and then saturated with a PBS solution containing 0.5% of Régilait™ (dried skimmed milk). After aspirating the saturating solution, the plates were heated for 10 min at 50° C.
The serum samples were diluted 1/5 with a skimmed milk solution (citrate buffer supplemented with 0.01% of phenol red, 0.25% of chloroform and 0.25% of Kathon®), deposited in the wells of the plates and incubated for 30 min at 40° C.
After washing with a Tris-NaCl buffer solution pH 7.4 containing 0.1% of Tween® 20 and 0.001% of sodium merthiolate, 100 μl of a solution of conjugate consisting of horseradish peroxidase-labelled anti-human IgG and IgM goat antibodies, containing as preservative 0.01% of sodium merthiolate, in solution in a citrate buffer solution supplemented with 30% glycerol and 25% normal foetal calf serum, were added to each plate well and then the plates were incubated for 30 min at 40° C.
After washing with a Tris-NaCl buffer solution pH 7.4 containing 0.1% of Tween® 20 and 0.001% of sodium merthiolate, the colour was developed by adding, to each well, 100 μl of O-phenylenediamine in solution in hydrogen peroxide. The microplates were then incubated for 30 min at room temperature and in the dark. The coloured reaction was then stopped by addition of 100 μl of 4N sulphuric acid. The absorbance (A) was determined at 490 and 620 nm.
The relative absorbance (A490-A620) read in each well is proportional to the immunoreactivity of each peptide. It indicates the ability of each peptide to react with the biological sample with which the test is carried out. The cut-off value was determined as being an absorbance equal to 0.15. It corresponds to the mean of the negative values (n=48) plus 12 standard deviations.
The reactivity of the peptides of the invention (peptide No. 3 (4B), peptide No. 2 (3B) and peptide No. 1 (2B), all in cyclized form), was compared with that of two synthetic peptides having, as sequence, a portion of the natural sequence of the envelope (env) of the VAU isolate (group O HIV-1 retrovirus) and comprising an immunodominant epitope of gp41.
For the study, these peptides were used in cyclized form.

RLLALETFIEENELLNLWGCKNRAICYTSVKWNKT (cysteine pairing not given here) [VAU 35 AA, reference compound]
ABSORBANCE (serum 134): > | ABSORBANCE (serum 402): > | ABSORBANCE (serum 625): 2.585 | ABSORBANCE (serum 1062): > | ABSORBANCE (serum 1105*): 0.129 | ABSORBANCE (serum 1581): 0.894 | ABSORBANCE (serum 1702): > | ABSORBANCE (serum 1754): 1.948 | ABSORBANCE (serum 2294): > | ABSORBANCE (serum 2312): > | ABSORBANCE (serum 2313): > | ABSORBANCE (serum 2352): > | ABSORBANCE (serum 2551): > | ABSORBANCE (serum 2700): > | ABSORBANCE (serum 3016): > | ABSORBANCE (serum 3136): > | ABSORBANCE (serum 3235): > | ABSORBANCE (serum 3236): > | ABSORBANCE (serum 3302): > | ABSORBANCE (serum 3482): > | ABSORBANCE (serum 3529): > | ABSORBANCE (serum 3600*): > | ABSORBANCE (serum 3627*): > | ABSORBANCE (serum 3637): 1.647 | ABSORBANCE (serum 3653): 1.322 | ABSORBANCE (serum 3771): > | ABSORBANCE (serum 3884*): > | ABSORBANCE (serum 3891): > | ABSORBANCE (serum 3935): 0.227 | ABSORBANCE (serum 3945): > | ABSORBANCE (serum 4021*): 1.957 | ABSORBANCE (serum 4364): > | ABSORBANCE (serum 4434): > | ABSORBANCE (serum 4477): > | ABSORBANCE (serum 4489*): 1.718 | ABSORBANCE (serum 5149*): > | ABSORBANCE (serum 5164): > | ABSORBANCE (serum 5210): > | ABSORBANCE (serum 5270*): > | ABSORBANCE (serum 5373): 0.856 | ABSORBANCE (serum 5453): 1.482 | ABSORBANCE (serum 5766*): > | ABSORBANCE (serum 5931): 2.225 | ABSORBANCE (serum 5969*): > | ABSORBANCE (serum 6111): > | ABSORBANCE (serum 6165): > | ABSORBANCE (serum 6198*): > | ABSORBANCE (serum 6295*): > | ABSORBANCE (serum 6487): 2.891 | ABSORBANCE (serum 6512*): 0.174 | ABSORBANCE (serum 6627): > | ABSORBANCE (serum 6689*): > | ABSORBANCE (serum 6697): > | ABSORBANCE (serum 6782): 2.214 | ABSORBANCE (serum 6891): 0.496 | ABSORBANCE (serum 6976*): > | ABSORBANCE (serum 6998): > | ABSORBANCE (serum 7007): 2.151 | ABSORBANCE (serum 7120): > | ABSORBANCE (serum 7212): > | ABSORBANCE (serum 7258*): > | ABSORBANCE (serum 7297*): > | ABSORBANCE (serum 7439): > | ABSORBANCE (serum 7443): 0.574 | ABSORBANCE (serum DUR*): 0.872 | ABSORBANCE (serum ESS*): > | ABSORBANCE (serum HAD): 0.871 | ABSORBANCE (serum VAU*): >

LLSSWGCKGRLVCYTSVQWNET [PEPTIDE No. 3 (4B)]
ABSORBANCE (serum 134): > | ABSORBANCE (serum 402): > | ABSORBANCE (serum 625): > | ABSORBANCE (serum 1062): > | ABSORBANCE (serum 1105*): 1.421 | ABSORBANCE (serum 1581): > | ABSORBANCE (serum 1702): > | ABSORBANCE (serum 1754): > | ABSORBANCE (serum 2294): > | ABSORBANCE (serum 2312): > | ABSORBANCE (serum 2313): > | ABSORBANCE (serum 2352): > | ABSORBANCE (serum 2551): > | ABSORBANCE (serum 2700): > | ABSORBANCE (serum 3016): > | ABSORBANCE (serum 3136): > | ABSORBANCE (serum 3235): > | ABSORBANCE (serum 3236): > | ABSORBANCE (serum 3302): > | ABSORBANCE (serum 3482): 2.402 | ABSORBANCE (serum 3529): > | ABSORBANCE (serum 3600*): > | ABSORBANCE (serum 3627*): > | ABSORBANCE (serum 3637): > | ABSORBANCE (serum 3653): 1.352 | ABSORBANCE (serum 3771): > | ABSORBANCE (serum 3884*): > | ABSORBANCE (serum 3891): > | ABSORBANCE (serum 3935): > | ABSORBANCE (serum 3945): > | ABSORBANCE (serum 4021*): 0.430 | ABSORBANCE (serum 4288*): > | ABSORBANCE (serum 4364): > | ABSORBANCE (serum 4434): > | ABSORBANCE (serum 4477): > | ABSORBANCE (serum 4489*): > | ABSORBANCE (serum 5149*): > | ABSORBANCE (serum 5164): > | ABSORBANCE (serum 5210): > | ABSORBANCE (serum 5270*): > | ABSORBANCE (serum 5373): > | ABSORBANCE (serum 5453): 0.555 | ABSORBANCE (serum 5766*): > | ABSORBANCE (serum 5931): > | ABSORBANCE (serum 5969*): > | ABSORBANCE (serum 6111): > | ABSORBANCE (serum 6165): > | ABSORBANCE (serum 6198*): > | ABSORBANCE (serum 6295*): 1.718 | ABSORBANCE (serum 6487): > | ABSORBANCE (serum 6512*): 0.746 | ABSORBANCE (serum 6627): > | ABSORBANCE (serum 6689*): 0.710 | ABSORBANCE (serum 6697): > | ABSORBANCE (serum 6782): > | ABSORBANCE (serum 6891): > | ABSORBANCE (serum 6976*): > | ABSORBANCE (serum 6998): > | ABSORBANCE (serum 7007): 2.136 | ABSORBANCE (serum 7120): > | ABSORBANCE (serum 7212): > | ABSORBANCE (serum 7258*): > | ABSORBANCE (serum 7297*): > | ABSORBANCE (serum 7439): > | ABSORBANCE (serum 7443): > | ABSORBANCE (serum DUR*): > | ABSORBANCE (serum ESS*): >** | ABSORBANCE (serum HAD): > | ABSORBANCE (serum VAU*): 1.342 | immunoreactivity compared with the other peptides (in words) (summary of Table IV): best performance
